What was measured:
Test in all cases: relative viability (nuclei count vs DMSO), 5 days (fraction); higher = more cells survive
[1] = compound: CN(C)CC1=CC(=CC=C1)N=C(C2=CC=CC=C2)C3=C(NC4=C3C=CC(=C4)C(=O)N(C)C)O + NC(=O)Nc1cc(-c2cccc(F)c2)sc1C(=O)N[C@H]1CCCNC1 [AZD7762] (partner 0.2 µM)
In short: (§1)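 For relative viability, nuclei counts in treated wells were divided by those in vehicle wells. Lung cancer cell lines had been pin-tool dosed in 1536-well plates the day after seeding and cultured for 5 days, then fixed and stained in one step (final 0.05% Triton X-100, 1% formaldehyde, 1 ug/ml Hoechst) and imaged at 4×. Doses were one drug alone or a fixed anchor-drug dose plus five library-drug doses (not always all listed) in √10 steps, and values are duplicate-plate medians.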

[2] = compound: CN(C)CC1=CC(=CC=C1)N=C(C2=CC=CC=C2)C3=C(NC4=C3C=CC(=C4)C(=O)N(C)C)O + Nc1ncn([C@H]2C[C@H](O)[C@@H](CO)O2)c(=O)n1 [Decitabine] (partner 2 µM)
In short: as §1

[3] = compound: CN(C)CC1=CC(=CC=C1)N=C(C2=CC=CC=C2)C3=C(NC4=C3C=CC(=C4)C(=O)N(C)C)O + CS(=O)(=O)CCNCc1ccc(-c2ccc3ncnc(Nc4ccc(OCc5cccc(F)c5)c(Cl)c4)c3c2)o1 [Lapatinib] (partner 2 µM)
In short: as §1

[4] = compound: CN(C)CC1=CC(=CC=C1)N=C(C2=CC=CC=C2)C3=C(NC4=C3C=CC(=C4)C(=O)N(C)C)O + O=C(c1cc(Cc2n[nH]c(=O)c3ccccc23)ccc1F)N1CCN(C(=O)C2CC2)CC1 [Olaparib] (partner 8 µM)
In short: as §1

Row | Cell Line | relative viability ([1]; first compound 0.08 µM) | relative viability ([1]; first compound 0.253 µM) | relative viability ([1]; first compound 0.8 µM) | relative viability ([1]; first compound 2.53 µM) | relative viability ([1]; first compound 8 µM) | relative viability ([2]; first compound 0.08 µM) | relative viability ([2]; first compound 0.253 µM) | relative viability ([2]; first compound 0.8 µM) | relative viability ([2]; first compound 2.53 µM) | relative viability ([2]; first compound 8 µM) | relative viability ([3]; first compound 0.08 µM) | relative viability ([3]; first compound 0.253 µM) | relative viability ([3]; first compound 0.8 µM) | relative viability ([3]; first compound 2.53 µM) | relative viability ([3]; first compound 8 µM) | relative viability ([4]; first compound 0.08 µM) | relative viability ([4]; first compound 0.253 µM) | relative viability ([4]; first compound 0.8 µM) | relative viability ([4]; first compound 2.53 µM) | relative viability ([4]; first compound 8 µM)
1 | 201T | 0.675 | 0.6 | 0.627 | 0.607 | 0.525 | 0.836 | 0.874 | 0.849 | 0.855 | 0.738 | 0.95 | 1.01 | 1.01 | 1.02 | 0.981 | 0.829 | 0.801 | 0.839 | 0.817 | 0.721
2 | A-427 | 0.75 | 0.666 | 0.712 | 0.676 | 0.631 | 0.562 | 0.614 | 0.547 | 0.554 | 0.534 | 1.03 | 1.06 | 1.09 | 1.03 | 1.1 | 0.716 | 0.711 | 0.754 | 0.707 | 0.711
3 | ABC-1 | 0.805 | 1.11 | 0.81 | 0.903 | 0.676 | 1.38 | 0.939 | 1.2 | 0.99 | 0.904 | 1.19 | 1.13 | 1.02 | 0.827 | 0.938 | 0.91 | 0.907 | 0.952 | 0.635 | 0.756
4 | BEN | 0.701 | 0.71 | 0.695 | 0.728 | 0.745 | 0.674 | 0.913 | 0.787 | 0.69 | 0.771 | 0.734 | 0.647 | 0.72 | 0.685 | 0.656 | 1.09 | 0.867 | 1.1 | 0.877 | 0.927
5 | CAL-12T | 0.627 | 0.668 | 0.58 | 0.647 | 0.687 | – | – | – | – | – | – | 0.746 | 0.878 | – | 0.755 | 0.704 | 0.67 | 0.81 | 0.654 | 0.829
6 | COR-L23 | – | – | – | – | – | 0.442 | 0.422 | 0.433 | 0.429 | 0.401 | 1.05 | 0.895 | 0.922 | 0.92 | 0.975 | 0.36 | 0.308 | 0.397 | 0.314 | 0.327
7 | COR-L 105 | – | – | – | – | – | 1.12 | 0.621 | 0.635 | 0.667 | 0.628 | 0.384 | 0.406 | 0.318 | 0.357 | 0.349 | 0.909 | 0.732 | 0.675 | 0.612 | 0.75
8 | Calu-6 | – | – | – | – | – | – | – | – | – | – | 1.13 | 1.01 | 1.02 | 1.07 | 1.03 | 0.558 | 0.549 | 0.571 | 0.565 | 0.63
9 | ChaGo-K-1 | 0.832 | 0.824 | 0.902 | 0.822 | 0.896 | 0.524 | 0.516 | 0.523 | 0.418 | 0.485 | – | – | – | – | – | 0.386 | 0.458 | 0.41 | 0.355 | 0.415
10 | EBC-1 | – | – | – | – | – | – | – | – | – | – | 0.223 | 0.248 | 0.227 | 0.198 | 0.225 | 0.785 | 0.732 | 0.772 | 0.744 | 0.845

Reference: the supplement of paper PMC10307832
